Literature values as cited in patent publication US20220400744A1, “POUCHED PRODUCT COMPRISING DISSOLVABLE COMPOSITION” (NICOVENTURES TRADING LIMITED, priority 2021, published 2022).
Where two headings read alike, the source gives them in different places.

Experiments:
[1] = for solubility in water / aqueous environment: water or aqueous environment (e.g., saliva)
[2] = for logP: Table 1, partition coefficient between octanol and water
[3] = when isolated; isomerizes to trans-bixin

solubility in water / aqueous environment [1] | Molecule | logP [2] | also measured
water soluble | CC(/C=C/C=C(C)/C=C/C(=O)O)=C\C=C\C=C(C)\C=C\C=C(C)\C=C\C(=O)O (stereo in doubt) [norbixin, (2E,4E,6E,8E,10E,12E,14E,16E,18E)-4,8,13,17-tetramethylicosa-2,4,6,8,10,12,14,16,18-nonaenedioic acid] | – | –
insoluble | COC(=O)/C=C/C(C)=C\C=C\C(C)=C\C=C\C=C(C)\C=C\C=C(C)\C=C\C(=O)O [bixin, (2E,4E,6E,8E,10E,12E,14E,16Z,18E)-20-methoxy-4,8,13,17-tetramethyl-20-oxoicosa-2,4,6,8,10,12,14,16,18-nonaenoic acid] | – | solubility in fats and alcohols ([1]; fats and alcohols): soluble; chemical stability [3]: chemically unstable
– | CC(C)[C@@H]1CC[C@@H](C)C[C@H]1OC(=O)CCC(=O)O [monomenthyl succinate] | 3 | –
– | CN1CCCC1c1cccnc1 (centres unmarked) [nicotine, reference compound] | – | partitioning into octanol ([2]; acidic pH, about 6.5 to about 4, protonated form): lower partitioning into octanol; partitioning into octanol ([2]; alkaline pH, about 7.5 to about 9, free base form): high partitioning into octanol
– | ethyl benzoic acid | 2.9 | –
– | isopropyl benzoic acid | 3.5 | –

Molecule | solubility in water / aqueous environment [1] | logP [2] | also measured
C=C(C)[C@@H]1CCC(C)=C[C@H]1c1c(O)cc(CCCCC)cc1O [CBD, cannabidiol, reference compound] | insoluble | – | logP value ([2]; CBD): about 6.5
